Values of other authors in US11648211B2, “Nanoencapsulated combination drug formulations” (priority 2019, dated 2023).
Structures can show the parent of a compound that is named as a salt. Where two headings read alike, the source gives them in different places.

Experiments:
[1] = system: SARS-2-S-driven entry into Caco-2 cells
[2] = system: SARS-2-S-driven entry into Vero-TMPRSS2 cells
[3] = in vivo, ip, 5 mg/kg
[4] = human, in vivo
[5] = in vivo
advanced breast cancer = settings: in vivo

Question: Which results are given for `CN(C)C(=O)COC(=O)Cc1ccc(OC(=O)c2ccc(NC(=N)N)cc2)cc1` [Camostat mesylate]?
Answer: SARS-2-S-driven entry [1]: partially blocked; SARS-2-S-driven entry [2]: partially blocked

Question: Which results are given for `CCc1cnn2c(NCc3ccc[n+]([O-])c3)cc(N3CCCC[C@H]3CCO)nc12` [DCB, Dinaciclib]?
Answer: half-life [3]: 0.25 h; half-life [4]: 3.3 h; patients with neutropenia [4]: 43%; patients with thrombocytopenia [4]: 3%; patients with grade 3-4 toxicities [5]: 60%; grade 3-4 febrile neutropenia (advanced breast cancer): 11%; grade 3-4 increased transaminase levels (advanced breast cancer): 11%; grade 3-4 leukopenia (advanced breast cancer): 21%; grade 3-4 neutropenia (advanced breast cancer): 47%

Question: What does the source list for `Cn1ncnc1[C@H]1c2n[nH]c(=O)c3cc(F)cc(c23)N[C@@H]1c1ccc(F)cc1` [TLZ, Talazoparib]?
Answer: patients with anemia, low RBC count (oral): 52%; patients with leukopenia, low WBC count (oral): 17%; patients with thrombocytopenia, low PLT count (oral): 27%; patients with neutropenia (patients treated with TLZ): 35%
